This is an account of results in ChEMBL document CHEMBL1147469, “Design and synthesis of de novo cytotoxic alkaloids through mimicking taxoid skeleton” (Bioorg Med Chem Lett, 2004).

Holding throughout (assay type): functional, cell-based
The subject of one test is MCF7R. The test can be described thus: In vitro cytotoxic activity against growth of MDR phenotype human breast carcinoma cell line (MCF-7-R) after 72 hr.
The subject of the next test is MCF7S. The test can be described thus: In vitro cytotoxic activity against growth of human breast carcinoma cell line (MCF-7-S) after 72 hr.
Test [1] concerns MDA-MB-435. As to the kind of experiment: In vitro cytotoxic activity against growth of human breast carcinoma cell line (LCC6-WT) after 72 hr. The note with it: MDA-MB-435, 72 h.
In test [2] the test system is MDA-MB-435. As to the kind of experiment: In vitro cytotoxic activity against growth of MDR1 transduced line (LCC6-MDR) after 72 hr. The note with it: Homo sapiens, MDA-MB-435, 72 h.

Take `CC(C)C[C@@H]1NC(=O)OCCCc2cccc(c2)C(=O)O[C@H]2C=CC(=O)N3C[C@H](C[C@H]23)OC(=O)[C@@H]1O`: the IC50 – broadly, the midpoint of a concentration-inhibition curve – with MCF7R (Homo sapiens, MCF7R, 72 h) is more than 20 µM; in the test with MCF7S (Homo sapiens, MCF7S, 72 h) it was more than 20 µM; in the test on MDA-MB-435 [1] it was more than 20 µM; in the test with MDA-MB-435 [2], more than 20 µM.
As to `COc1cccc(C(=O)O[C@H]2CCC(=O)N3C[C@@H](OC(=O)[C@H](O)[C@H](CC(C)C)NC(=O)OC(C)(C)C)C[C@H]23)c1`, the IC50 was more than 20 µM in the test on MCF7R (Homo sapiens, MCF7R, 72 h); 14 µM in the test on MCF7S (Homo sapiens, MCF7S, 72 h); more than 20 µM in the test on MDA-MB-435 [1]; more than 20 µM with MDA-MB-435 [2].
For the compound `CC(=O)O[C@H]1C(=O)[C@@]2(C)[C@H]([C@H](OC(=O)c3ccccc3)[C@]3(O)C[C@H](OC(=O)[C@H](O)[C@@H](NC(=O)c4ccccc4)c4ccccc4)C(C)=C1C3(C)C)[C@]1(OC(C)=O)CO[C@@H]1C[C@@H]2O` [PACLITAXEL], the IC50 was 1.19 µM in the test on MCF7R (Homo sapiens, MCF7R, 72 h); 0.002 µM in the test with MCF7S (Homo sapiens, MCF7S, 72 h); 0.004 µM with MDA-MB-435 [1]; 0.379 µM in the test with MDA-MB-435 [2].
On to CISPLATIN, for which the IC50 with MCF7R (mcf7r) worked out at 3.53 µM; in the test with MCF7S (mcf7s) it was 3.97 µM.
